Six compounds from ChEMBL document CHEMBL1149531, “Inhibitory effect of 2-arylbenzofurans from Erythrina addisoniae on protein tyrosine phosphatase-1B” (Bioorg Med Chem Lett, 2007) can be followed below.

The target in the assay is T1, Tyrosine-protein phosphatase non-receptor type 1 (Homo sapiens, UniProt P18031).
T1 sequence (P18031 whole entry): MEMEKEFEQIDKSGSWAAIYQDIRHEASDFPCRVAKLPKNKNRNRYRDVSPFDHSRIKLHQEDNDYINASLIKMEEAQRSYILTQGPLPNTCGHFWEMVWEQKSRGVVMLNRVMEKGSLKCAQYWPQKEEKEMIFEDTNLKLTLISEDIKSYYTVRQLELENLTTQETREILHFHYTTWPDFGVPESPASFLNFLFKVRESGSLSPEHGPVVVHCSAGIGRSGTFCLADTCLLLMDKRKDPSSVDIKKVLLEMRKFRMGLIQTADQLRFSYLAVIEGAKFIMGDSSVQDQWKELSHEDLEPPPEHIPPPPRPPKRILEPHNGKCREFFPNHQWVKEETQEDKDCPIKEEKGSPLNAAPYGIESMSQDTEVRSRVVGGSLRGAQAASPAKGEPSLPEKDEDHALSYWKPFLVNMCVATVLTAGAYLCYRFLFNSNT
One may read the IC50 as the concentration that gives 50% inhibition. A lower IC50 goes with greater potency in that assay. `CC1(C)C=Cc2c(O)ccc(-c3cc4ccc(O)cc4o3)c2O1` returned an IC50 of 62.7 µM.
The compound `CC1(C)C=Cc2c(ccc(-c3cc4ccc(O)cc4o3)c2O)O1` showed an IC50 of 64.9 µM. This IC50 and that of the compound before are within 1.5-fold of each other.
Compound `COc1ccc2cc(-c3ccc(O)cc3OC)oc2c1` had an IC50 of 74.1 µM.
In turn, `CC(C)=CCc1c(O)ccc(-c2cc3ccc(O)cc3o2)c1O` [2'-O-DEMETHYLBIDWILLOL B] had an IC50 of 13.6 µM.
As to `COc1cc(O)c(CC=C(C)C)cc1-c1cc2ccc(O)cc2o1` [ADDISOFURAN A], half-maximal inhibition (IC50) required 17.5 µM. The IC50 values of the last two compounds are within 1.5-fold of each other.
With `COc1cc(O)ccc1-c1cc2cc(CC=C(C)C)c(O)cc2o1` [ADDISOFURAN B], half-maximal inhibition (IC50) was put at 15.7 µM.
